Source: US11383009B2, “Rapamycin 40-O-cyclic hydrocarbon esters, compositions and methods” (BIOTRONIK AG, priority 2012, dated 2022)
Values joined by “and” are separate entries in the source; they are usually repeats but may differ in a detail not shown here. Identical values can stand only once.

Experiments:
[1] = Stent coating condition after stent expansion (ductility); details: coating of 1:1 weight ratio drug and polylactic acid; compared with rapamycin coating
Text: In accordance with one of the unexpected advantages of the present invention, it has been discovered that a coating formed with the compounds of the present invention is substantially more ductile, i.e., less prone to cracking, than a coating formed with rapamycin. This property can be seen from the photomicrographs of FIGS. 1 and 2, which show the condition of a stent coating after stent expansion in a stent formed of a 1:1 weight ratio of […] and polylactic acid (FIG. 1) and a coating formed of a 1:1 weight ratio of Compound 1 (Table I) and polylactic acid (FIG. 2). […] An important advantage of the drug compound in this setting is that a coating with a high drug:polymer ratio can be prepared without the need for addition of a separate plasticizer, which may cause toxic responses, affect drug elution rates, and extend development times and increase production costs.

[2] = Drug elution and total recovery from polymer-coated stents; assay type: physicochemical; details: single stent, 1:1 drug/polylactic acid coating; 25% ethanol in water, 37° C., 168 hours elution plus exhaustive acetonitrile extraction
Method: This section examines the stability of the compounds of the invention when released from a reservoir over a several-day to several-week period. In one study, a series of stents were prepared with a suitable coating of drug/polymer mixture. The stents were fabricated from laser cut and electropolished 316L Stainless Steel and measured 16 millimeters in length. The coating mixture contained an equal weight of polylactic acid and each of the compounds to be evaluated. The mixture components were weighed, combined in a glass vial with acetone at room temperature and then vortexed until all of the materials dissolved. Each individual stent was weighed using a Mettler model XP105 balance. […]
After visual inspection the stents were mounted onto 3.0 mm×16 mm angioplasty balloons using a hand crimper. […] The appropriate pressure for inflation was determined using the inflation table applicable to the angioplasty catheter. […]
For elution comparison each stent was transferred into its respective 7-mL borosilicate vial and 4.0 mL 25% ethanol in water (w/w) elution medium was added. […] The amount of drug eluted during each time interval was determined by HPLC. After a cumulative incubation of 168 hours, the remaining drug in each stent was determined by exhaustive extraction by adding 4.0 mL acetonitrile to each stent for 20 minutes at ambient temperature followed by vortexing for 10 seconds. […]

[3] = Drug stability in rabbit vitreous humour at 37° C.; assay type: in vitro ADME, New Zealand White rabbit
Text: (§1) The assay comparison between sirolimus and the compounds of the present invention (denoted as CRC) is further described at Table XI.

[4] = Drug stability in rabbit aqueous humour at 37° C.; assay type: in vitro ADME
Text: as §1

[5] = tested on: vascular restenosis, porcine coronary arteries; assay: Trial B: coated magnesium stents implanted in porcine coronary arteries, 28 days; details: Group 1 (n = 5 stents), 223 μg drug in polylactic acid on parylene C coated magnesium stent; 28 days post-implant
Text: Coronary artery measurements were made from angiographic images before stent deployment, immediately after deployment, and twenty-eight days after deployment to determine the effectiveness of the coated stent in reducing restenosis. Determination of angiographic late loss was made by subtraction of the minimum vessel lumen diameter of the stented vessel at 28 days post-implant from the minimal vessel lumen diameter at the time of implant. Determination of percent diameter stenosis was made at 28 days post-implant by the calculation of 100(1-MLD/refdia.) where MLD represents the minimum vessel lumen diameter at 28 days post-implant and refdia. is the average diameter of the vessel sections adjacent to the stented vessel.

[6] = 72 hours, drug dose 48.4 μg (SIR 1), 52.2 μg (CRC 1)
[7] = […], drug dose 47.8 μg (SIR 2), 54.0 μg (CRC 2)
[8] = 72 hours, drug dose 45.2 μg (SIR 1), 51.4 μg (CRC 1)

COC1CC2CCC(C)C(O)(O2)C(=O)C(=O)N2CCCCC2C(=O)OC(C(C)CC2CCC(OC(=O)C3CC3)C(OC)C2)CC(=O)C(C)C=C(C)C(O)C(OC)C(=O)C(C)CC(C)C=CC=CC=C1C (stereo not shown) [Compound 1, Rapamycin 40-O-Cyclic Hydrocarbon Ester with Cyclopropanecarbonyl Chloride]
condition of stent coating after stent expansion (ductility) [1]: more ductile

CO[C@H]1C[C@@H]2CC[C@@H](C)[C@@](O)(O2)C(=O)C(=O)N2CCCC[C@H]2C(=O)O[C@H]([C@H](C)C[C@@H]2CC[C@@H](O)[C@H](OC)C2)CC(=O)[C@H](C)/C=C(\C)[C@@H](O)[C@@H](OC)C(=O)[C@H](C)C[C@H](C)/C=C/C=C/C=C/1C [Rapamycin]
Total Drug (μg) Recovered [2]: 109.1 µg and 84.6 µg and 103.4 µg and 125.2 µg and 71.6 µg | Degradants (HPLC UV Area Percent) ([3]; 0 hrs): 3% | Intact drug (HPLC UV Area Percent) ([3]; 0 hrs): 97% | Degradants (HPLC UV Area Percent) ([3]; 1 hrs): 3% | Intact drug (HPLC UV Area Percent) ([3]; 1 hrs): 97% | Degradants (HPLC UV Area Percent) ([3]; 4 hrs): 7% | Intact drug (HPLC UV Area Percent) ([3]; 4 hrs): 93% | Degradants (HPLC UV Area Percent) ([3]; 24 hrs): 43% | Intact drug (HPLC UV Area Percent) ([3]; 24 hrs): 57% | Degradants (HPLC UV Area Percent) ([3]; 48 hrs): 71% | Intact drug (HPLC UV Area Percent) ([3]; 48 hrs): 29% | % Remaining (72 Hours) [3, 6]: 8% | Drug Remaining 72 Hours [3, 6]: 4.0 µg | Degradants (HPLC UV Area Percent) ([3]; 72 hrs): 84% | Intact drug (HPLC UV Area Percent) ([3]; 72 hrs): 16% | % Remaining (192 Hours) [3, 7]: 1% | Drug Remaining 192 Hours [3, 7]: 0.6 µg | Degradants (HPLC UV Area Percent) ([4]; 0 hrs): 2% | Intact drug (HPLC UV Area Percent) ([4]; 0 hrs): 98% | Degradants (HPLC UV Area Percent) ([4]; 1 hrs): 4% | Intact drug (HPLC UV Area Percent) ([4]; 1 hrs): 96% | Degradants (HPLC UV Area Percent) ([4]; 4 hrs): 18% | Intact drug (HPLC UV Area Percent) ([4]; 4 hrs): 82% | Degradants (HPLC UV Area Percent) ([4]; 24 hrs): 86% | Intact drug (HPLC UV Area Percent) ([4]; 24 hrs): 14% | Degradants (HPLC UV Area Percent) ([4]; 48 hrs): 96% | Intact drug (HPLC UV Area Percent) ([4]; 48 hrs): 4% | % Remaining (72 Hours) [4, 8]: 0% | Drug Remaining 72 Hours [4, 8]: 0.0 µg | Degradants (HPLC UV Area Percent) ([4]; 72 hrs): 100% | Intact drug (HPLC UV Area Percent) ([4]; 72 hrs): 0% | Angiographic Late Loss [5]: 0.42 mm | Diameter Stenosis [5]: 13.1%
